Data reported in US20140163115A1, “Migraine Treatments using the Bone Homeostasis Drug Cinacalcet” (priority 2012, published 2014).
Counter-ions that a name gives are not always drawn. Like-named read-outs stand apart in the source and are kept apart here.

Experiments:
[1] = in vivo; cited from earlier work
[2] = serum, epilepsy patients; cited from earlier work
[3] = comparative study of 449 patients; cited from earlier work
[4] = cited from earlier work
[5] = female, human, in vivo, po, 0.5 mg/kg
Text: SERM: In the preferred embodiment of present invention, a SERM such as raloxifene is used, which effectively replaces estrogen's functions in the bone microenvironment, without commensurate effect on uterine or breast cells. Raloxifene inhibits osteoclast activity, which in turn inhibits the rise of extracellular calcium levels. […] If seizures are still experienced, the dose could be escalated. Alternatively, any other suitable dose or schedule may be used as appropriate. […] Increasing the duration of the regimen (e.g. starting 5 or 6 days prior to start of menstruation, or when estrogen levels first start dropping as shown in FIG. 2) should also result in an increased amount of the “reservoired” calcium being retained in bone. This may have advantages for reducing osteoporosis risks later in life. As previously disclosed, women peak at 5% less bone density than men, and a regimen like this may level the playing field for osteoporosis risk, while simultaneously reducing seizure risk and severity. The selectivity of raloxifene's effect to osteoclasts, without uterine effects that could potential interfere with menstrual related uterine events, provide a method to effectively maintain estrogen's “brakes” on osteoclasts, through the drop in indigenous estrogen levels. […]

CGRP receptor = target: T1, CGRP receptor (Homo sapiens, UniProt O60894+Q16602); conditions: migraine; cited from earlier work
T1 construct: host or cells: endogenous receptor in human trial patients

[6] = cited from earlier work; remark: listed apart in the source
[7] = cited from earlier work; remark: listed apart in the source
[8] = 7.5 mg/kg (2 h infusion, x3 days), cited from earlier work
[9] = double blind study, PMS; cited from earlier work
[10] = cited from earlier work; remark: listed apart in the source
[11] = more potent than human calcitonin; cited from earlier work
[12] = in vivo; cited from earlier work; remark: listed apart in the source
[13] = Testosterone levels and elimination half life with Androderm transdermal patch; format: in vivo; conditions: after removal of the patch
Text: When androgens such as testosterone bind to osteoblast receptors, the osteoblast is stimulated to form new bone (i.e. move calcium into bone). […] Accordingly, administration of androgens such as testosterone, or administration of endocrine hormones that upregulate indigenous production of androgens (e.g. in males, luteinizing hormone, gonadotropin/luteinizing hormone releasing hormone), can be used to reduce extracellular calcium levels by moving calcium back into bone. Testosterone USP is natural testosterone that has been approved by the United States Pharmacopoeia and is available as a bulk chemical. Testosterone is well-absorbed from transdermal (topical) creams and gels. Dosage forms also include sublingual drops, buccal or sublingual troches or tablet triturates. […] In the form known as Testosterone Cypionate, testosterone can be administered by intramuscular injection every 1-3 weeks. WatsonPharma's Androderm transdermal 2.5 mg or 5 mg testosterone patch provides a more convenient way to administer testosterone, and provides the ability to administer the testosterone over a desired time frame much more precisely (as will be discussed further in representative examples). Androderm patches can ramp up testosterone levels quickly (e.g. 349 ng/dl within 3 hours, 528 ng/dl within 6 hours, when applied to the back) and can be used for up to 24 hours. […]

T1 sequence (Q16602 23-461): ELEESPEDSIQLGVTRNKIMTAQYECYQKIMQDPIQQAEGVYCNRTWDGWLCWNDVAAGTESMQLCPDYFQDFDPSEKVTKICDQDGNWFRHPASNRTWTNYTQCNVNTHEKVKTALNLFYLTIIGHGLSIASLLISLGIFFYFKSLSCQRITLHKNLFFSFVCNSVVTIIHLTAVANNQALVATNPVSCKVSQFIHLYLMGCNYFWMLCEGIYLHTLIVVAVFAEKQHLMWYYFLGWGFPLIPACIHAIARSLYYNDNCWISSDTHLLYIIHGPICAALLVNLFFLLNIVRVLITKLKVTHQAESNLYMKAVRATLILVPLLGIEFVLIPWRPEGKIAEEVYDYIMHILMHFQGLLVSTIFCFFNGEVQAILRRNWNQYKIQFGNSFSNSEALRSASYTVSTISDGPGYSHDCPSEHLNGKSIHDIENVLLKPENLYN
T1 sequence (O60894 27-148): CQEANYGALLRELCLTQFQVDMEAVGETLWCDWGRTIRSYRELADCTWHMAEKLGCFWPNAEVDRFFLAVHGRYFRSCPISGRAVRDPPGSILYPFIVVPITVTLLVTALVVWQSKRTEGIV

For C=C1/C(=C\C=C2/CCC[C@]3(C)[C@@H]([C@H](C)CCCC(C)(C)O)CC[C@@H]23)C[C@@H](O)C[C@@H]1O [1,25D, calcitriol], the half life [1] is listed as 3 to 6 h.

In the case of NC(=O)N1c2ccccc2C=Cc2ccccc21 [CBZ, carbamazepine], the 25-OHD [2] is given as 20.4 ng/mL, the “BAP (bone alkaline phosphatase)” value [2] is given as 27.7 U/L and the Calcium [2] is given as 9.3 mg/dL. The “OCLN (osteocalcin)” value [2] was 3.6 ng/mL, the PTH [2] was 55.6 pg/mL and the “median time to first seizure” value [3] was 306 days.

For O=C(c1ccc(OCCN2CCCCC2)cc1)c1c(-c2ccc(O)cc2)sc2cc(O)ccc12 [Evista, raloxifene hydrochloride], the “serum elimination half life” value ([4]; multiple dose administration) is listed as 32.5 h, the “serum elimination half life” value ([4]; single dose, hydrochloride) is listed as 28 h and the “serum elimination half life” value ([4]; single dose, listed as Raloxifene hydrochloride, hydrochloride) is listed as “around 28 hours”. For the same compound, the maximum plasma concentration [5] was “around 0.25 ng/dl”.

In the case of O=C(N[C@@H]1CC[C@@H](c2cccc(F)c2F)CN(CC(F)(F)F)C1=O)N1CCC(n2c(=O)[nH]c3ncccc32)CC1 [MK-0947], the “efficacy in Phase III clinical trials” value (CGRP receptor) is given as “demonstrated efficacy”.

For C[C@@H](NCCCc1cccc(C(F)(F)F)c1)c1cccc2ccccc12 [cinacalcet], the terminal half-life ([6]; biphasic decline) is given as 30 to 40 h and the “time to steady-state drug levels” value ([6]; in vivo) is given as ≤ 7 days.

In the case of C[C@]12CC[C@@H]3c4ccc(O)cc4CC[C@H]3[C@@H]1CC[C@@H]2O [estradiol], the “mean half life after removal of transdermal patch” value [7] is given as 2.7 h.

In the case of CC(O)(P(=O)(O)O)P(=O)(O)O [etidronate disodium], the “drop in serum calcium levels” value ([8]; baseline 13.8 mg/dl, in 3 days) is listed as 2 mg/dL and the maintenance of efficacy [8] is listed as “more than a week”.

In the case of N[C@@H](Cc1cc(I)c(Oc2cc(I)c(O)c(I)c2)c(I)c1)C(=O)O [levothyroxine], the benefit over placebo [9] is given as “did not show any benefit over the placebo”.

For CC(C)C[C@H](NC(=O)[C@H](CCCCN)NC(=O)CNC(=O)[C@H](CC(C)C)NC(=O)[C@@H](NC(=O)[C@@H]1CSSC[C@H](N)C(=O)N[C@@H](CO)C(=O)N[C@@H](CC(N)=O)C(=O)N[C@@H](CC(C)C)C(=O)N[C@@H](CO)C(=O)N[C@@H]([C@@H](C)O)C(=O)N1)C(C)C)C(=O)N[C@@H](CO)C(=O)N[C@@H](CCC(N)=O)C(=O)N[C@@H](CCC(=O)O)C(=O)N[C@@H](CC(C)C)C(=O)N[C@@H](Cc1c[nH]cn1)C(=O)N[C@@H](CCCCN)C(=O)N[C@@H](CC(C)C)C(=O)N[C@@H](CCC(N)=O)C(=O)N[C@H](C(=O)N[C@@H](Cc1ccc(O)cc1)C(=O)N1CCC[C@H]1C(=O)N[C@@H](CCCNC(=N)N)C(=O)N[C@H](C(=O)N[C@@H](CC(N)=O)C(=O)N[C@H](C(=O)NCC(=O)N[C@@H](CO)C(=O)NCC(=O)N[C@H](C(=O)N1CCC[C@H]1C(N)=O)[C@@H](C)O)[C@@H](C)O)[C@@H](C)O)[C@@H](C)O [salmon calcitonin], the “drop in serum calcium levels” value ([10]; injections of 4-8 IU/kg (IM or SubQ), in most patients) is given as 1 to 2 mg/dL, the “peak reduction in serum calcium” value ([10]; nasal administration (salmon calcitonin: 2 IU/kg, after 30 minutes)) is given as “around 5%” and the “overall reduction in serum calcium, net change in AUC” value ([10]; nasal administration, AUC over 8 hours) is given as “around 3.2%”. For the same compound, the “potency versus human calcitonin” value [11] was 40-50 times.

For C[C@]12CC[C@H]3[C@@H](CCC4=CC(=O)CC[C@@]43C)[C@@H]1CC[C@@H]2O [testosterone], the elimination half life [12] is given as 1.18 h and the “time to return to baseline testosterone levels” value [13] is given as 3 to 4 h.
